Measurements from ChEMBL document CHEMBL5385950, “Terpenoids from the Soft Coral Stereonephthya bellissima” (J Nat Prod, 2024).
The source made the active and inactive calls. No cut-off for these calls is given here.

Organism: Danio rerio
Assay: Pro-angiogenesis activity against PTK787 induced vascular injury in Tg(vegfr2: EGFP) zebrafish at 20 uM measured after 24 hrs by fluorescence imaging analysis
Format: functional, organism-based

## CC(=O)C1=CCC[C@]23O[C@H]2CC[C@](C)(O)[C@@]13C
  Activity: Active
